# Assay results: paper PMC8949771, “Gold(I)-Mediated Rapid Cyclization of Propargylated Peptides via Imine Formation” (Journal of the American Chemical Society, 2022)
# Test: Au(I)-mediated imine macrocyclisation: N-terminal amine adds (Markovnikov) to N-propargyl backbone amide alkyne; JohnPhosAu(MeCN)SbF6 2 equiv, Et4NBr 16 equiv; in situ NaBH4 10 equiv reduction 15 min for quantification
# Details: DMF, 8.0 mM, 37.0 °C
smiles,measurement,setting,value
CC(C)C[C@@H]1NC(=O)CNC(=O)[C@H](Cc2c[nH]c3ccccc23)NC(C)CN(CC(N)=O)C(=O)CNC(=O)[C@H](C)NC(=O)[C@H](CCCNC(=N)N)NC(=O)[C@H](Cc2ccc(O)cc2)NC1=O (stereo partly drawn) [H-Trp-Gly-Leu-Tyr-Arg-Ala-Gly-(N-propargyl)Gly-NH2],"ring closure, conversion by HPLC","from C#CCN(CC(N)=O)C(=O)CNC(=O)[C@H](C)NC(=O)[C@H](CCCNC(=N)N)NC(=O)[C@H](Cc1ccc(O)cc1)NC(=O)[C@H](CC(C)C)NC(=O)CNC(=O)[C@@H](N)Cc1c[nH]c2ccccc12, 24-membered ring, 1.0 h",83%
CC(C)C[C@@H]1NC(=O)CNC(=O)[C@H](CCC(=O)O)NC(C)CN(CC(N)=O)C(=O)CNC(=O)[C@H](C)NC(=O)[C@H](CCCNC(=N)N)NC(=O)[C@H](Cc2ccc(O)cc2)NC1=O (stereo partly drawn) [H-Glu-Gly-Leu-Tyr-Arg-Ala-Gly-(N-propargyl)Gly-NH2],"ring closure, conversion by HPLC","from C#CCN(CC(N)=O)C(=O)CNC(=O)[C@H](C)NC(=O)[C@H](CCCNC(=N)N)NC(=O)[C@H](Cc1ccc(O)cc1)NC(=O)[C@H](CC(C)C)NC(=O)CNC(=O)[C@@H](N)CCC(=O)O, 24-membered ring, 1.0 h",89%
CC(C)C[C@@H]1NC(=O)CNC(=O)[C@H](CC(N)=O)NC(C)CN(CC(N)=O)C(=O)CNC(=O)[C@H](C)NC(=O)[C@H](CCCNC(=N)N)NC(=O)[C@H](Cc2ccc(O)cc2)NC1=O (stereo partly drawn) [H-Asn-Gly-Leu-Tyr-Arg-Ala-Gly-(N-propargyl)Gly-NH2],"ring closure, conversion by HPLC","from C#CCN(CC(N)=O)C(=O)CNC(=O)[C@H](C)NC(=O)[C@H](CCCNC(=N)N)NC(=O)[C@H](Cc1ccc(O)cc1)NC(=O)[C@H](CC(C)C)NC(=O)CNC(=O)[C@@H](N)CC(N)=O, 24-membered ring, 1.0 h",76%
CC(C)C[C@@H]1NC(=O)CNC(=O)[C@H](CCCNC(=N)N)NC(C)CN(CC(N)=O)C(=O)CNC(=O)[C@H](C)NC(=O)[C@H](CCCNC(=N)N)NC(=O)[C@H](Cc2ccc(O)cc2)NC1=O (stereo partly drawn) [H-Arg-Gly-Leu-Tyr-Arg-Ala-Gly-(N-propargyl)Gly-NH2],"ring closure, conversion by HPLC","from C#CCN(CC(N)=O)C(=O)CNC(=O)[C@H](C)NC(=O)[C@H](CCCNC(=N)N)NC(=O)[C@H](Cc1ccc(O)cc1)NC(=O)[C@H](CC(C)C)NC(=O)CNC(=O)[C@@H](N)CCCNC(=N)N, 24-membered ring, 1.0 h",83%
CC(C)C[C@@H]1NC(=O)CNC(C)CN(CC(N)=O)C(=O)CNC(=O)[C@H](C)NC(=O)[C@H](CCCNC(=N)N)NC(=O)[C@H](Cc2ccc(O)cc2)NC1=O (stereo partly drawn) [H-Gly-Leu-Tyr-Arg-Ala-Gly-(N-propargyl)Gly-NH2],"ring closure, conversion by HPLC","from C#CCN(CC(N)=O)C(=O)CNC(=O)[C@H](C)NC(=O)[C@H](CCCNC(=N)N)NC(=O)[C@H](Cc1ccc(O)cc1)NC(=O)[C@H](CC(C)C)NC(=O)CN, 21-membered ring, 0.5 h",78%
CC(C)C[C@@H]1NC(=O)CNC(=O)[C@H](Cc2ccccc2)NC(C)CN(CC(N)=O)C(=O)CNC(=O)[C@H](C)NC(=O)[C@H](CC(=O)O)NC(=O)[C@H](Cc2ccc(O)cc2)NC1=O (stereo partly drawn) [H-Phe-Gly-Leu-Tyr-Asp-Ala-Gly-(N-propargyl)Gly-NH2],"ring closure, conversion by HPLC","from C#CCN(CC(N)=O)C(=O)CNC(=O)[C@H](C)NC(=O)[C@H](CC(=O)O)NC(=O)[C@H](Cc1ccc(O)cc1)NC(=O)[C@H](CC(C)C)NC(=O)CNC(=O)[C@@H](N)Cc1ccccc1, 24-membered ring, 1.0 h",82%
CC(C)C[C@@H]1NC(=O)CNC(=O)[C@H](CC(=O)O)NC(C)CN(CC(N)=O)C(=O)CNC(=O)[C@H](C)NC(=O)[C@H](CCCNC(=N)N)NC(=O)[C@H](Cc2ccc(O)cc2)NC1=O (stereo partly drawn) [H-Asp-Gly-Leu-Tyr-Arg-Ala-Gly-(N-propargyl)Gly-NH2],"ring closure, conversion by HPLC","from C#CCN(CC(N)=O)C(=O)CNC(=O)[C@H](C)NC(=O)[C@H](CCCNC(=N)N)NC(=O)[C@H](Cc1ccc(O)cc1)NC(=O)[C@H](CC(C)C)NC(=O)CNC(=O)[C@@H](N)CC(=O)O, 24-membered ring, 1.0 h",76%
CC(C)C[C@@H]1NC(=O)CNC(=O)[C@H](CS)NC(C)CN(CC(N)=O)C(=O)CNC(=O)[C@H](C)NC(=O)[C@H](CCCNC(=N)N)NC(=O)[C@H](Cc2ccc(O)cc2)NC1=O (stereo partly drawn) [H-Cys-Gly-Leu-Tyr-Arg-Ala-Gly-(N-propargyl)Gly-NH2],"ring closure, conversion by HPLC","from C#CCN(CC(N)=O)C(=O)CNC(=O)[C@H](C)NC(=O)[C@H](CCCNC(=N)N)NC(=O)[C@H](Cc1ccc(O)cc1)NC(=O)[C@H](CC(C)C)NC(=O)CNC(=O)[C@@H](N)CS, 24-membered ring, 1.0 h",76%
CC(=O)NCSC[C@@H]1NC(=O)[C@H](Cc2ccc(O)cc2)NC(=O)[C@H](CC(C)C)NC(=O)CNC(C)CN(CC(N)=O)C(=O)CNC(=O)[C@H](C)NC1=O (stereo partly drawn) [H-Gly-Leu-Tyr-Cys(Acm)-Ala-Gly-(N-propargyl)Gly-NH2],"ring closure, conversion by HPLC","from C#CCN(CC(N)=O)C(=O)CNC(=O)[C@H](C)NC(=O)[C@H](CSCNC(C)=O)NC(=O)[C@H](Cc1ccc(O)cc1)NC(=O)[C@H](CC(C)C)NC(=O)CN, 21-membered ring, 0.5 h",82%
CC[C@H](C)[C@@H](C(N)=O)N1CC(C)N[C@@H](Cc2ccccc2)C(=O)NCC(=O)N[C@@H](CC(C)C)C(=O)N[C@@H](Cc2ccc(O)cc2)C(=O)N[C@@H](CCCNC(=N)N)C(=O)N[C@@H](C)C(=O)NCC1=O (stereo partly drawn) [H-Phe-Gly-Leu-Tyr-Arg-Ala-Gly-(N-propargyl)Ile-NH2],"ring closure, conversion by HPLC","from C#CCN(C(=O)CNC(=O)[C@H](C)NC(=O)[C@H](CCCNC(=N)N)NC(=O)[C@H](Cc1ccc(O)cc1)NC(=O)[C@H](CC(C)C)NC(=O)CNC(=O)[C@@H](N)Cc1ccccc1)[C@H](C(N)=O)[C@@H](C)CC, 24-membered ring, 1.0 h",85%
CC(C)C[C@@H]1NC(=O)CNC(=O)[C@H](Cc2ccccc2)NC(C)CN(CC(N)=O)C(=O)CNC(=O)[C@H](C)NC(=O)[C@H](CCC(=O)O)NC(=O)[C@H](Cc2ccc(O)cc2)NC1=O (stereo partly drawn) [H-Phe-Gly-Leu-Tyr-Glu-Ala-Gly-(N-propargyl)Gly-NH2],"ring closure, conversion by HPLC","from C#CCN(CC(N)=O)C(=O)CNC(=O)[C@H](C)NC(=O)[C@H](CCC(=O)O)NC(=O)[C@H](Cc1ccc(O)cc1)NC(=O)[C@H](CC(C)C)NC(=O)CNC(=O)[C@@H](N)Cc1ccccc1, 24-membered ring, 1.0 h",83%
CC(C)C[C@@H]1NC(=O)CNC(=O)[C@H](Cc2ccccc2)NC(C)CN(CC(N)=O)C(=O)CNC(=O)[C@H](C)NC(=O)[C@H](Cc2c[nH]cn2)NC(=O)[C@H](Cc2ccc(O)cc2)NC1=O (stereo partly drawn) [H-Phe-Gly-Leu-Tyr-His-Ala-Gly-(N-propargyl)Gly-NH2],"ring closure, conversion by HPLC","from C#CCN(CC(N)=O)C(=O)CNC(=O)[C@H](C)NC(=O)[C@H](Cc1c[nH]cn1)NC(=O)[C@H](Cc1ccc(O)cc1)NC(=O)[C@H](CC(C)C)NC(=O)CNC(=O)[C@@H](N)Cc1ccccc1, 24-membered ring, 1.0 h",57%
CC[C@H](C)[C@@H]1NC(=O)[C@H](C)NC(=O)[C@H](CCCNC(=N)N)NC(=O)[C@H](Cc2ccc(O)cc2)NC(=O)[C@H](CC(C)C)NC(=O)CNC(=O)[C@H](Cc2ccccc2)NC(C)CN(CC(N)=O)C1=O (stereo partly drawn) [H-Phe-Gly-Leu-Tyr-Arg-Ala-Ile-(N-propargyl)Gly-NH2],"ring closure, conversion by HPLC","from C#CCN(CC(N)=O)C(=O)[C@@H](NC(=O)[C@H](C)NC(=O)[C@H](CCCNC(=N)N)NC(=O)[C@H](Cc1ccc(O)cc1)NC(=O)[C@H](CC(C)C)NC(=O)CNC(=O)[C@@H](N)Cc1ccccc1)[C@@H](C)CC, 24-membered ring, 1.0 h",89%
CC(C)C[C@@H]1NC(=O)CNC(=O)[C@H](Cc2ccccc2)NC(C)CN(CC(N)=O)C(=O)CNC(=O)[C@H](C)NC(=O)[C@H](CO)NC(=O)[C@H](Cc2ccc(O)cc2)NC1=O (stereo partly drawn) [H-Phe-Gly-Leu-Tyr-Ser-Ala-Gly-(N-propargyl)Gly-NH2],"ring closure, conversion by HPLC","from C#CCN(CC(N)=O)C(=O)CNC(=O)[C@H](C)NC(=O)[C@H](CO)NC(=O)[C@H](Cc1ccc(O)cc1)NC(=O)[C@H](CC(C)C)NC(=O)CNC(=O)[C@@H](N)Cc1ccccc1, 24-membered ring, 1.0 h",74%
CC(C)C[C@@H]1NC(=O)CNC(=O)[C@H](Cc2ccccc2)NC(C)CN([C@@H](Cc2ccccc2)C(N)=O)C(=O)CNC(=O)[C@H](C)NC(=O)[C@H](CCCNC(=N)N)NC(=O)[C@H](Cc2ccc(O)cc2)NC1=O (stereo partly drawn) [H-Phe-Gly-Leu-Tyr-Arg-Ala-Gly-(N-propargyl)Phe-NH2],"ring closure, conversion by HPLC","from C#CCN(C(=O)CNC(=O)[C@H](C)NC(=O)[C@H](CCCNC(=N)N)NC(=O)[C@H](Cc1ccc(O)cc1)NC(=O)[C@H](CC(C)C)NC(=O)CNC(=O)[C@@H](N)Cc1ccccc1)[C@@H](Cc1ccccc1)C(N)=O, 24-membered ring, 1.0 h",88%
CC(C)C[C@@H]1NC(=O)CNC(=O)[C@H](Cc2ccccc2)NC(C)CN([C@@H](C)C(N)=O)C(=O)CNC(=O)[C@H](C)NC(=O)[C@H](CCCNC(=N)N)NC(=O)[C@H](Cc2ccc(O)cc2)NC1=O (stereo partly drawn) [H-Phe-Gly-Leu-Tyr-Arg-Ala-Gly-(N-propargyl)Ala-NH2],"ring closure, conversion by HPLC","from C#CCN(C(=O)CNC(=O)[C@H](C)NC(=O)[C@H](CCCNC(=N)N)NC(=O)[C@H](Cc1ccc(O)cc1)NC(=O)[C@H](CC(C)C)NC(=O)CNC(=O)[C@@H](N)Cc1ccccc1)[C@@H](C)C(N)=O, 24-membered ring, 1.0 h",90%
CC(C)C[C@@H]1NC(=O)CNC(C)CN(CC(N)=O)C(=O)CNC(=O)CNC(=O)CNC(=O)[C@H](C)NC(=O)[C@H](CCCNC(=N)N)NC(=O)[C@H](Cc2ccc(O)cc2)NC(=O)[C@H](CC(C)C)NC(=O)[C@H](Cc2ccccc2)NC(=O)CNC(=O)CNC(=O)[C@H](C)NC(=O)[C@H](CCCNC(=N)N)NC(=O)[C@H](Cc2ccc(O)cc2)NC(=O)[C@H](CC(C)C)NC1=O (some centres unmarked),"ring closure, conversion by HPLC","from C#CCN(CC(N)=O)C(=O)CNC(=O)CNC(=O)CNC(=O)[C@H](C)NC(=O)[C@H](CCCNC(=N)N)NC(=O)[C@H](Cc1ccc(O)cc1)NC(=O)[C@H](CC(C)C)NC(=O)[C@H](Cc1ccccc1)NC(=O)CNC(=O)CNC(=O)[C@H](C)NC(=O)[C@H](CCCNC(=N)N)NC(=O)[C@H](Cc1ccc(O)cc1)NC(=O)[C@H](CC(C)C)NC(=O)[C@H](CC(C)C)NC(=O)CN, 51-membered ring, 1.0 h",94%
